Measurements as given in patent US20250197658A1, “ANTIOXIDANT STABILIZERS FOR DIRECT FABRICATION OF ORTHODONTIC APPLIANCES” (Align Technology, Inc., priority 2023, published 2025).

Experiment: Photoinitiator stability: concentrations in recovered resin composition after printing cycles
Format: physicochemical
Details: for change of concentration in recovered resin composition: with increasing printing cycles

| Compound | concentration in recovered resin composition (1 printing cycle) [wt %] | concentration in recovered resin composition (2 printing cycles) [wt %] | concentration in recovered resin composition (4 printing cycles) [wt %] | concentration in recovered resin composition (6 printing cycles) [wt %] | change of concentration in recovered resin composition |
| --- | --- | --- | --- | --- | --- |
| Cc1cc(C)c(C(=O)P(=O)(C(=O)c2c(C)cc(C)cc2C)c2ccccc2)c(C)c1 [BAPO, phenylbis(2,4,6-trimethylbenzoyl) phosphine oxide] | 0.98 | 1 | 0.98 | 0.99 | remained constant |
| Vitamin E | 0.0077 | 0.0063 | 0.0043 | 0.0026 | decreased |
